Source: patent US20240246908A1 (ORION CORPORATION, priority 2021, published 2024)

system: YAP-TEAD; assay: TEAD inhibition, Hippo Pathway TEAD Reporter MCF-7 luciferase assay; type: cell-based; conditions: Homo sapiens, MCF7, 24 h, Hippo Pathway TEAD Reporter MCF-7 cells, luciferase activity after 24 h; read-out: IC50 of the test compounds on YAP-TEAD inhibition (Group)
Method in brief: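 IC50 derived from ONE-Glo luciferase luminescence after 24 h compound exposure (11 concentrations in quadruplicate, 0.1% DMSO control). Reporter: MCF-7 line expressing firefly luciferase under TEAD elements, constitutively activated by nuclear YAP1.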

| SMILES | IC50 |
| --- | --- |
| COc1ccc(Oc2ccc(CF)cc2)cc1NC(=O)[C@@H]1CNC(=O)N1C [Compound 353, (S)—N-(5-(4-(Fluoromethyl)phenoxy)-2-methoxyphenyl)-3-methyl-2-oxoimidazolidine-4-carboxamide] | 0.301 to 2 µM |
| COC(=O)CN1C(=O)CCC1C(=O)Nc1cc(Oc2ccc(C(F)(F)F)cc2)ccc1OC (stereo not drawn) [Compound 354, Methyl 2-(2-((2-methoxy-5-(4-(trifluoromethyl)phenoxy)phenyl)carbamoyl)-5-oxopyrrolidin-1-yl)acetate] | 0.301 to 2 µM |
| COc1ccc(Oc2ccc(C(F)(F)F)cc2)cc1NC(=O)[C@@H]1CNC(=O)C1 [Compound 355, (S)—N-(2-Methoxy-5-(4-(trifluoromethyl)phenoxy)phenyl)-5-oxopyrrolidine-3-carboxamide] | < 0.05 µM |
| COc1ccc(Oc2ccc(Cl)cc2)cc1NC(=O)[C@@H]1CNC(=O)N1C [Compound 356, (S)—N-(5-(4-Chlorophenoxy)-2-methoxyphenyl)-3-methyl-2-oxoimidazolidine-4-carboxamide] | < 0.05 µM |
| COc1ccc(Oc2ccc(C(F)(F)F)cc2)cc1NC(=O)[C@H]1CNC(=O)C1 [Compound 357, (R)—N-(2-Methoxy-5-(4-(trifluoromethyl)phenoxy)phenyl)-5-oxopyrrolidine-3-carboxamide] | 0.05 to 0.3 µM |
| COc1ccc(Oc2ncc(C(F)(F)F)cc2F)cc1NC(=O)[C@@H]1CCCN1C(C)=O [Compound 358, (S)-1-Acetyl-N-(5-((3-fluoro-5-(trifluoromethyl)pyridin-2-yl)oxy)-2-methoxyphenyl)pyrrolidine-2-carboxamide] | 0.301 to 2 µM |
| COc1ccc(Oc2ncc(C(F)(F)F)cc2F)cc1NC(=O)[C@@H]1CN(C)C(=O)N1C [Compound 359, (S)—N-(5-((3-Fluoro-5-(trifluoromethyl)pyridin-2-yl)oxy)-2-methoxyphenyl)-1,3-dimethyl-2-oxoimidazolidine-4-carboxamide] | 0.05 to 0.3 µM |
| CN1C[C@@H](C(=O)Nc2cc(Oc3ccc(C(F)(F)F)cn3)cc3c2OCO3)N(C)C1=O [Compound 360, (S)-1,3-Dimethyl-2-oxo-N-(6-((5-(trifluoromethyl)pyridin-2-yl)oxy)benzo[d]-[1,3]dioxol-4-yl)imidazolidine-4-carboxamide] | 0.05 to 0.3 µM |
| CN1C(=O)NC[C@H]1C(=O)Nc1cc(Oc2ccc(C(F)(F)F)cn2)c(F)cc1F [Compound 361, (S)—N-(2,4-Difluoro-5-((5-(trifluoromethyl)pyridin-2-yl)oxy)phenyl)-3-methyl-2-oxoimidazolidine-4-carboxamide] | < 0.05 µM |
| CN1C(=O)NC[C@H]1C(=O)Nc1cc(F)cc(Oc2ccc(C(F)(F)F)cn2)c1 [Compound 362, (S)—N-(3-Fluoro-5-((5-(trifluoromethyl)pyridin-2-yl)oxy)phenyl)-3-methyl-2-oxoimidazolidine-4-carboxamide] | < 0.05 µM |
| CN1C(=O)CC[C@H]1C(=O)Nc1cc(Oc2ccc(C(F)(F)F)cc2)ccc1F [Compound 363, (S)—N-(2-Fluoro-5-(4-(trifluoromethyl)phenoxy)phenyl)-1-methyl-5-oxo-pyrrolidine-2-carboxamide] | < 0.05 µM |
| CN1C[C@@H](C(=O)Nc2cc(Oc3ccc(C(F)(F)F)cn3)cc3c2OCC3)N(C)C1=O [Compound 364, (S)-1,3-Dimethyl-2-oxo-N-(5-((5-(trifluoromethyl)pyridin-2-yl)oxy)-2,3-dihydrobenzofuran-7-yl)imidazolidine-4-carboxamide] | 0.05 to 0.3 µM |
| CN1C(=O)NC[C@H]1C(=O)Nc1cc(Oc2ccc(C(F)(F)F)cc2)ccc1F [Compound 365, (S)—N-(2-Fluoro-5-(4-(trifluoromethyl)phenoxy)phenyl)-3-methyl-2-oxo-imidazolidine-4-carboxamide] | < 0.05 µM |
| CN1C(=O)CCC1C(=O)Nc1cc(Oc2cccc(C(F)(F)F)c2)ccc1Br (stereo not drawn) [Compound 366, N-(2-Bromo-5-(3-(trifluoromethyl)phenoxy)phenyl)-1-methyl-5-oxopyrrolidine-2-carboxamide] | 0.301 to 2 µM |
| CN1C(=O)CCC1C(=O)Nc1cc(Oc2ccc(C(F)(F)F)cc2)ccc1C#N (stereo not drawn) [Compound 367, N-(2-Cyano-5-(4-(trifluoromethyl)phenoxy)phenyl)-1-methyl-5-oxopyrrolidine-2-carboxamide] | 0.301 to 2 µM |
| CN1C(=O)CCC1C(=O)Nc1cc(Oc2ccc(C(F)(F)F)cn2)ccc1F (stereo not drawn) [Compound 368, N-(2-Fluoro-5-((5-(trifluoromethyl)pyridin-2-yl)oxy)phenyl)-1-methyl-5-oxopyrrolidine-2-carboxamide] | 0.05 to 0.3 µM |
| COc1ccc(Oc2ccc(C(F)(F)F)cc2)cc1NC(=O)[C@@H]1C[C@@H](O)CN1 [Compound 370, (2S,4R)-4-Hydroxy-N-(2-methoxy-5-(4-(trifluoromethyl)phenoxy)phenyl)pyrrolidine-2-carboxamide] | 0.301 to 2 µM |
| COc1ccc(Oc2ccc(C(F)(F)F)cc2)cc1NC(=O)[C@@H]1CCC(=O)N1C(C)=O [Compound 371, (S)-1-Acetyl-N-(2-methoxy-5-(4-(trifluoromethyl)phenoxy)-phenyl)-5-oxopyrrolidine-2-carboxamide] | 0.05 to 0.3 µM |

| SMILES | IC50 |
| --- | --- |
| CN1C(=O)CCC1C(=O)Nc1cc(Oc2ccc(C(F)(F)F)cc2)ccc1O (stereo not drawn) [Compound 372, N-(2-Hydroxy-5-(4-(trifluoromethyl)phenoxy)phenyl)-1-methyl-5-oxopyrrolidine-2-carboxamide] | 0.301 to 2 µM |
| CN1C(=O)NC[C@H]1C(=O)Nc1cc(Oc2ccc(C(F)(F)F)cn2)ccc1O [Compound 373, (S)—N-(2-Hydroxy-5-((5-(trifluoromethyl)pyridin-2-yl)oxy)phenyl)-3-methyl-2-oxoimidazolidine-4-carboxamide] | 0.301 to 2 µM |
| COc1ccc(Oc2ccc(C(F)(F)F)cc2)cc1NC(=O)C1CNCC(=O)N1C (stereo not drawn) [Compound 374, N-(2-Methoxy-5-(4-(trifluoromethyl)phenoxy)phenyl)-1-methyl-6-oxopiperazine-2-carboxamide] | 0.301 to 2 µM |
| CNC(CCC(=O)O)C(=O)Nc1cc(Oc2ccc(C(F)(F)F)cc2)ccc1OC (stereo not drawn) [Compound 375] | < 0.05 µM |
| CN1C(=O)CNCC1C(=O)Nc1cc(Oc2ccc(C(F)(F)F)cc2)cc2c1OCC2 (stereo not drawn) [Compound 376, 1-Methyl-6-oxo-N-(5-(4-(trifluoromethyl)phenoxy)-2,3-dihydro-benzofuran-7-yl)piperazine-2-carboxamide] | 0.05 to 0.3 µM |
| COc1ccc(Oc2ccc(C(F)(F)F)cc2)cc1NC(=O)C1CCC(=O)N1CCC(N)=O (stereo not drawn) [Compound 379, 1-(3-Amino-3-oxopropyl)-N-(2-methoxy-5-(4-(trifluoromethyl)-phenoxy)phenyl)-5-oxopyrrolidine-2-carboxamide] | 0.05 to 0.3 µM |
| COc1ccc(Oc2ccc(C(F)(F)F)cc2)cc1NC(=O)[C@@H]1C[C@H](O)C(=O)N1C [Compound 380, (2S,4S)-4-Hydroxy-N-(2-methoxy-5-(4-(trifluoromethyl)phenoxy)phenyl)-1-methyl-5-oxopyrrolidine-2-carboxamide] | 0.05 to 0.3 µM |
| COc1ccc(Oc2ccc(C(F)(F)F)cc2)cc1NC(=O)C1CCS(=N)(=O)CC1 (stereo not drawn) [Compound 381, 1-Imino-N-(2-methoxy-5-(4-(trifluoromethyl)phenoxy)phenyl)-hexahydro-1λ^6-thiopyran-4-carboxamide 1-oxide] | 0.05 to 0.3 µM |
| COc1cc(F)c(Oc2ccc(C(F)(F)F)cc2)cc1NC(=O)C1CNC(=O)N1C (stereo not drawn) [Compound 382, N-(4-Fluoro-2-methoxy-5-(4-(trifluoromethyl)phenoxy)phenyl)-3-methyl-2-oxoimidazolidine-4-carboxamide] | < 0.05 µM |
| CN1CC(=O)N(C)C(C(=O)Nc2cc(Oc3ccc(C(F)(F)F)cc3)cc3c2OCC3)C1 (stereo not drawn) [Compound 383, 1,4-Dimethyl-6-oxo-N-(5-(4-(trifluoromethyl)phenoxy)-2,3-dihydrobenzofuran-7-yl)piperazine-2-carboxamide] | 0.05 to 0.3 µM |
| COc1ccc(Oc2ccc(Cl)cc2F)cc1NC(=O)C1CCC(=O)N1C (stereo not drawn) [Compound 385, N-(5-(4-Chloro-2-fluorophenoxy)-2-methoxyphenyl)-1-methyl-5-oxopyrrolidine-2-carboxamide] | < 0.05 µM |
| COc1ccc(NC(=O)C2CCC(=O)N2C)cc1Cc1ccc(C(F)(F)F)cc1 (stereo not drawn) [Compound 387, N-(4-Methoxy-3-(4-(trifluoromethyl)benzyl)phenyl)-1-methyl-5-oxo-pyrrolidine-2-carboxamide] | 0.301 to 2 µM |
| COc1ccc(Oc2ccc(C(F)(F)F)cc2)cc1NC(=O)c1coc(=O)[nH]1 [Compound 388, N-(2-Methoxy-5-(4-(trifluoromethyl)phenoxy)phenyl)-2-oxo-2,3-dihydrooxazole-4-carboxamide] | 0.301 to 2 µM |
| COc1ccc(Oc2ccc(F)c(F)c2)c(C)c1NC(=O)C1CCC(=O)N1C (stereo not drawn) [Compound 389, N-(3-(3,4-Difluorophenoxy)-6-methoxy-2-methylphenyl)-1-methyl-5-oxopyrrolidine-2-carboxamide] | 0.301 to 2 µM |
| COc1ccc(Oc2cccc(C#N)c2)cc1NC(=O)C1CCC(=O)N1C (stereo not drawn) [Compound 390, N-(5-(3-Cyanophenoxy)-2-methoxyphenyl)-1-methyl-5-oxopyrrolidine-2-carboxamide] | 0.301 to 2 µM |
| COc1ccc(Oc2ccc(C(F)(F)F)c(OC)c2)cc1NC(=O)C1CCC(=O)N1C (stereo not drawn) [Compound 391, N-(2-Methoxy-5-(3-methoxy-4-(trifluoromethyl)phenoxy)phenyl)-1-methyl-5-oxopyrrolidine-2-carboxamide] | < 0.05 µM |
| COc1ccc(Oc2ccc(C(F)(F)F)cc2)cc1NC(=O)c1nnn[nH]1 [Compound 392, N-(2-Methoxy-5-(4-(trifluoromethyl)phenoxy)phenyl)-1H-tetrazole-5-carboxamide] | 0.301 to 2 µM |
| COc1ccc(Oc2cc(C(F)(F)F)ccn2)cc1NC(=O)[C@H]1CCC(=O)N1C [Compound 393, (R)—N-(2-Methoxy-5-((4-(trifluoromethyl)pyridin-2-yl)oxy)phenyl)-1-methyl-5-oxopyrrolidine-2-carboxamide] | 0.301 to 2 µM |
